{
  "source": "paper PMC4153739",
  "about": "(Biochemistry, 2012)",
  "test_system": "four NR2 NMDA receptor subtypes (NR2A, NR2B, NR2C, NR2D with NR1-2b)",
  "format": "cell-based, rat",
  "note": "Non-standard residues stand in square brackets, D forms with d. Residues, ends and D or L forms follow the SMILES beside them. Gla = N[C@@H](CC(C(=O)O)C(=O)O)C(=O)O",
  "data": [
    {"smiles": "CC(C)C[C@H](NC(=O)[C@H](CC(C(=O)O)C(=O)O)NC(=O)[C@H](CCCNC(=N)N)NC(=O)[C@H](C)NC(=O)[C@H](Cc1ccccc1)NC(=O)[C@H](CC(C(=O)O)C(=O)O)NC(=O)[C@H](CCC(N)=O)NC(=O)[C@H](CC(N)=O)NC(=O)[C@H](CC(C(=O)O)C(=O)O)NC(=O)[C@H](C)NC(=O)[C@H](CC(C)C)NC(=O)[C@H](CC(C(=O)O)C(=O)O)NC(=O)[C@H](CC(C(=O)O)C(=O)O)NC(=O)[C@H](CCC(=O)O)NC(=O)CN)C(=O)N[C@@H](C)C(=O)N[C@@H](CC(N)=O)C(N)=O", "note": "[ConRl-B[desKAO;N8Q9]] (H-GE[Gla][Gla]LA[Gla]NQ[Gla]FAR[Gla]LAN-NH2; N-terminus assumed)", "values": [
      {"measurement": "activity on the four NR2 NMDA receptor subtypes, in words", "result": "little or no activity"}
    ]}
  ]
}
